Values of other authors as cited in PMC7310027, “PET imaging of soluble epoxide hydrolase in non-human primate brain with [^18F]FNDP” (EJNMMI Research, 2020).

Conditions: cited from earlier work

CC(=O)N1CCC(NC(=O)NC23CC4CC(CC(C4)C2)C3)CC1 [AR-9281, 1-(1-Acetyl-piperidin-4-yl)-3-adamantan-1-yl-urea]
BBB permeability: BBB-permeable
